This note sets out measurements from publication PMC10059083, “Design, Synthesis, and Biological Evaluation of Novel Hydroxamic Acid-Based Organoselenium Hybrids” (Pharmaceuticals, 2023).

Values after ≈ are worked out from the molar mass of the structure shown. Values joined by “and” are separate entries in the source; they are usually repeats but may differ in a detail not shown here. Identical values can stand only once.

In test [1] the test system is E. coli. Nature of the test: MIC by microdilution, E. coli. The test is classed as cell-based. To be noted: Escherichia coli; microdilution method. From the text: (§1) The encouraging antitumor properties of the OSe compounds motivated us to evaluate their corresponding antimicrobial activities against the C. albicans fungal strain, S. aureus Gram-positive bacteria, and E. coli Gram-negative bacteria. Therefore, we applied the agar diffusion and minimum inhibitory concentration (MIC) methods using clotrimazole antifungal and ampicillin antibacterial drugs as standards.
(§2) The products’ antimicrobial properties were examined according to the previously reported method, via agar well diffusion assay against E. coli, S. aureus, and C. albicans. A microdilution method was also used to record MICs (M), following the previously reported procedure. Experimental details can be found in the Supplementary Materials.
(§3) Briefly, a concentration of 1 mM was prepared for each compound by dissolving in DMSO. Paper discs of standard size […] were sterilized in an autoclave and soaked in 9 µL of the test compounds, and placed in the Petri dishes, which in turn contain a nutrient media (agar 9 g, peptone 5 g, and beef extract 3 g) seeded with the dedicated strain. Incubation lasted for 13 h at 36 0C. […]
In general terms: Dilution methods test growth across graded concentrations, often in twofold steps.

Test [2] has as its system S. aureus. Nature of the test: Agar diffusion assay, S. aureus. The test is classed as cell-based, Staphylococcus aureus. Set-up: concentration or dose not given beside the values. To be noted: ratio of inhibition zone of compound to that of positive control (ampicillin).
Source text: as §1
The products’ antimicrobial properties were examined according to the previously reported method, via agar well diffusion assay against E. coli, S. aureus, and C. albicans. A microdilution method was also used to record MICs (M), following the previously reported procedure. Experimental details can be found in the Supplementary Materials. […]
(§4) 1.1.2. The antimicrobial activity
The antimicrobial activities of the OSe compounds were evaluate d against C. albicans yeast as well as E. coli gram-negative and S. aureus gram-positive bacteria employing the agar well diffusion assay.
Briefly, a concentration of 1 mM was prepared for each compound by dissolving in DMSO. Paper discs of standard size […] were sterilized in an autoclave and soaked in 9 µL of the test compounds, and placed in the Petri dishes, which in turn contain a nutrient media (agar 9 g, peptone 5 g, and beef extract 3 g) seeded with the dedicated strain. Incubation lasted for 13 h at 36 0C.
Experiments were replicated three times and the antifungal clotrimazole and antibiotic ampicillin […]
On the technique in general: In agar diffusion tests the substance spreads into inoculated agar from a disc or well.

Another test relates to C. albicans. Nature of the test: MIC by microdilution, C. albicans. The test is classed as cell-based. The settings on record: Candida albicans, read-out: MIC C. albicans.
Source text: as §1, §2, §3

The test system of test [3] is E. coli. Nature of the test: Agar diffusion assay, E. coli. In kind it is cell-based, Escherichia coli.
Source text: as §1, §2
1.1. […]
as §4
The antimicrobial activities of the OSe compounds were evaluate d against C. albicans yeast as well as E.
coli gram-negative and S. aureus gram-positive bacteria employing the agar well diffusion assay. […]
5 g, and beef extract 3 g) seeded with the dedicated strain. Incubation lasted for 13 h at 36 0C.
Experiments were replicated three times and the antifungal clotrimazole and antibiotic ampicillin
1.1.3. […]

Test [4] is described as follows: ABTS radical scavenging assay. The protocol:
(§5) The antioxidant activities of the OSe compounds were intensively investigated because these are usually the cause of their chemopreventive potency. Their redox activities were evaluated via DPPH and ABTS assays, using ascorbic acid as the standard. We spectrophotometrically measured the antioxidant efficiency of the OSe compounds by their ability to decolorise the DPPH^. and ABTS^. radicals at […] (Figure 2).
(§6) The compounds’ antioxidant properties were assessed by in vitro bioassays using DPPH and ABTS, following the reported method. Details are in the Supplementary Materials.
(§7) Figure 4 Estimation of the OSe compounds’ redox activities via DPPH and ABTS experiments. All tests are mean ± S.D. ABTS experiment: absorbance was followed at 734 nm for OSe compounds (50 µL, 1 mM in MeOH) and ABTS solution (60 µL). DPPH Absorbance was monitored at 517 nm for OSe compounds (200 µL, 1 mM in MeOH) and DPPH (400 µL) after 30 min. […]
1.1.3.2. The ABTS bioassay
The antioxidant activity of the investigated compounds was assessed using 2,2’-azino-bis(3-ethylbenzothiazoline-6-sulphonic acid (ABTS) method. The radical cation derived from ABTS was prepared by the reaction of 60 mM ABTS solution with 0.3 M manganese dioxide solution in 0.1M phosphate buffer, pH 7. Then, the mixture was shaken, centrifuged, filtered, and the absorbance (Acontrol ) of […]
the resulting green-blue solution (ABTS radical solution) was measured at wavelength 734 nm. Then, […] of 1 mg/ml test compound in phosphate-buffered methanol was added. The absorbance (Atest) was measured. The reduction in color intensity was expressed as % inhibition. The % inhibition for each […]
compound is calculated from the following equation
Inhibition% = (Acontrol-Asample)/(Acontrol)*100
Ascorbic acid (vitamin C) was used as a standard antioxidant (positive control). A blank sample was run […]
without ABTS and using MeOH/phosphate buffer (1:1) instead of the sample. A negative control sample […]
was run with MeOH/phosphate buffer (1:1) instead of a tested compound.

For test [5], the system named is S. aureus. Nature of the test: Agar diffusion assay, S. aureus. The test is classed as cell-based. The settings on record: Staphylococcus aureus; 6-mm disks soaked with 20 μM of the OSe agents; read-out: S. aureus ZID (inhibition zone diameter).
Test [6] can be described thus: DPPH radical scavenging assay. The procedure:
as §5, §6, §7
1.1.3. The antioxidant activity
1.1.3.1. The DPPH bioassay
The hydrogen atom or electron donation ability of the corresponding compounds was measured by estimating the bleaching of the purple color of a methanolic solution of DPPH [5]. This spectrophotometric assay uses stable DPPH. reagent. The sample was prepared by adding […] of the OSe compounds (1 mM in methanol) to […] DPPH in methanol. After 30 min of incubation in the dark, the absorbance was read against a blank at […]. Ascorbic acid (vitamin C) and ebselen were used as standard antioxidants (positive control). A blank sample was run without DPPH. A negative control sample was run using methanol instead of the sample. The radical scavenging activity was calculated using the following equation:
Inhibition%= (Ablank-Asample)/(Ablank)*100. […]
In general terms: Loss of DPPH colour is used to gauge radical scavenging.

In general, MIC refers to the lowest concentration that inhibits growth of the organism. What is called IC50 is the point on the concentration scale where inhibition reaches its midpoint. In the case of `Nc1ccc([Se]CC(=O)NOCc2ccccc2)cc1` [Compound 8, 2-((4-Aminophenyl)selanyl)-N-(benzyloxy)acetamide], the MIC with E. coli [1] amounted to 8 µM (≈ 2.68 µg/mL); with C. albicans it was 4 µM (≈ 1.34 µg/mL). Moreover, the “S. aureus IA% (activity index)” value in the test with S. aureus [2] worked out at 90.5%. Also, in the test on E. coli [3] (6-mm disks soaked with 20 μM of the OSe agents), the “E. coli ZID (inhibition zone diameter)” value is on record as 16 mm. The “E. coli IA% (activity index)” value in the test on E. coli [3] (ratio of inhibition zone of compound to that of positive control (ampicillin)) turned out to be 69.6%. Besides, the “antioxidant (scavenging) activity in the ABTS assay” value in test [4] (compounds 50 µL, 1 mM in MeOH, ABTS solution 60 µL, absorbance at 734 nm) is reported as 73.9%. Further, the 50% inhibitory concentration (IC50) in test [4] (concentration causing 50% decrease in absorbance, ABTS assay) came out at 27.24 ± 0.2 µM; in test [6] (concentration causing 50% decrease in absorbance, DPPH assay), 23.67 ± 0.21 µM. Further, in the test on S. aureus [5], the zone of inhibition at 20 µM turned out to be 19 mm. Also, the “antioxidant (scavenging) activity in the DPPH assay” value in test [6] (compounds 200 µL, 1 mM in MeOH, DPPH 400 µL, 30 min, absorbance at 517 nm) was 85.1% and 92.3%.
